The text below walks through data of US20220331326A1, “PHARMACEUTICAL COMPOSITION, PHARMACEUTICAL DOSAGE FORM, PROCESS FOR THEIR PREPARATION, METHODS FOR TREATING AND USES THEREOF” (Boehringer Ingelheim International GmbH, priority 2009, published 2022).

The nature of data set [1]: compatibility with / degradation of linagliptin in the composition. It is filed as physicochemical. Conditions: combined with a glucopyranosyl-substituted benzene derivative of the formula (I), in particular the compound (I.3). As for the experimental part:
Preferably the excipients are chosen such that they are compatible with linagliptin, i.e. such that there is no or only marginal degradation of linagliptin in the pharmaceutical composition. The degradation can be tested in standard tests, for example after a 6 months storage at 40° C. and 75% relative humidity. In this context the term “marginal degradation” shall mean a chemical degradation of linagliptin of less than 5%, preferably less than 3%, even more preferably less than 2% by weight of linagliptin. The content and thus the degradation can be determined by well-known analytical methods, for example using HPLC or UV methods.

Data set [2] deals with Zucker Diabetic Fatty (ZDF) rats. Kind of data set: oral glucose tolerance test in ZDF rats. It is filed as in vivo, rat. Conditions: male ZDF rats, single oral dose 30 min before 2 g/kg oral glucose; linagliptin 1 mg/kg, compound (I.3) 3 mg/kg, combination at the same doses; versus control. The protocol:
According to a first example an oral glucose tolerance test is performed in overnight fasted 9-weeks old male Zucker Diabetic Fatty (ZDF) rats (ZDF/Crl-Lepr^fa). A pre-dose blood sample is obtained by tail bleed. Blood glucose is measured with a glucometer, and the animals are randomized for blood glucose (n=5/group). Subsequently, the groups receive a single oral administration of either vehicle alone (0.5% aqueous hydroxyethylcellulose containing 3 mM HCl and 0.015% Polysorbat 80) or vehicle containing either the SGLT2 inhibitor or the DPPIV inhibitor or the combination of the SGLT2 inhibitor plus the DPP IV inhibitor plus. The animals receive an oral glucose load (2 g/kg) 30 min after compound administration. Blood glucose is measured in tail blood 30 min, 60 min, 90 min, 120 min, and 180 min after the glucose challenge. Glucose excursion is quantified by calculating the reactive glucose AUC. The data are presented as mean±SEM. The two-sided unpaired Student t-test is used for statistical comparison of the control group and the active groups.
“Cpd. A” is linagliptin at a dose of 1 mg/kg. Cpd. B is the compound (I.3), i.e. 1-chloro-4-(β-D-glucopyranos-1-yl)-2-[4-((S)-tetrahydrofuran-3-yloxy)-benzyl]-benzene, at a dose of 3 mg/kg. Combination A+B is the combination of linagliptin and the compound (I.3) at the same doses. P-values versus control are indicated by symbols above the bars. […]

For data set [3] the following is noted: metformin on its own, in the diabetic; cited from earlier work.

As for `CC#CCn1c(N2CCC[C@@H](N)C2)nc2c1c(=O)n(Cc1nc(C)c3ccccc3n1)c(=O)n2C` [Linagliptin, linagliptin], the degradation of linagliptin result in data set [1] is reported as “does not show or shows only marginal degradation”. Also, in data set [2], the “reduction of glucose excursion (reactive glucose AUC) in oral glucose tolerance test” value was 56%.

Turning to `OC[C@H]1O[C@@H](c2ccc(Cl)c(Cc3ccc(O[C@H]4CCOC4)cc3)c2)[C@H](O)[C@@H](O)[C@@H]1O` [compound (I.3), 1-chloro-4-(β-D-glucopyranos-1-yl)-2-[4-((S)-tetrahydrofuran-3-yloxy)-benzyl]-benzene], the “reduction of glucose excursion (reactive glucose AUC) in oral glucose tolerance test” value in data set [2] is 51%.

For `CN(C)C(=N)N=C(N)N` [metformin], the “average improvement in the HbA1c value” in data set [3] is listed as 1.0-1.5%.
